Reference: patent publication US20210220374A1, “METHODS OF TREATING TE[…]” (Clarus Therapeutics, Inc., priority 2013, published 2021)

Assay: Probability model of serum T Cavg and Cmax distributions (titration dosing modeling)
Set-up: species or system hypogonadal men
Settings: nominal model parameter, 200 mg T BID as TU, normal distribution
From the text: The fractions of the modeled patient population having their serum T Cavg and Cmax values falling within and/or outside of pre-specified limits and categories, as predicted from the probability model, were monitored and tabulated. The categories of interest were those identified by the FDA in its proposed guidelines for safe and effective hormone replacement therapy, as summarized in Table 2.
The probability model was based on the pharmacokinetic results obtained from the hypogonadal patient population that participated in the two multi-dose TU treatments in study LOT-A. As noted previously, 29 hypogonadal males participated in the study, 28 of them completed Treatment Period 1 (300 mg T, as TU, BID) and 24 of them completed Treatment Period 3 (200 mg T, as TU, BID).
Initially, the distribution of the calculated values of Cavg in the treated population was characterized by a mean and standard deviation assuming that the distribution fit either a normal distribution, or a log-normal distribution. […]
Second, a relationship was identified between serum T Cavg and Cmax using linear regression, such that given an hypothesized Cavg value, an expected value of Cmax could be determined (FIG. 5). […]
Fourth, the fraction of a treated population that fell within one of the 7 bins identified in Table 1 was calculated by: • 1. […]

With `CCCCCCCCCCC(=O)O[C@H]1CC[C@H]2[C@@H]3CCC4=CC(=O)CC[C@]4(C)[C@H]3CC[C@]12C` [TU, testosterone undecanoate] the “Mean Cavg (CV)” value was 520 (39%).
